In PubChem BioAssay (NCI):
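Results reflect a 48-hour exposure of cells in 96-well plates to compound at five concentrations. TGI is the concentration that stops growth completely.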

How the values were obtained:
Experiment in all cases: DTP human tumour cell line panel, 48 h
786-0 renal = tested on: 786-0 renal
A498 renal = tested on: A498 renal
A549 NSCLC = tested on: A549 NSCLC
ACHN renal = tested on: ACHN renal
BT-549 breast = tested on: BT-549 breast
CAKI-1 renal = tested on: CAKI-1 renal
CCRF-CEM leukemia = tested on: CCRF-CEM leukemia
COLO 205 colon = tested on: COLO 205 colon
DU-145 prostate = tested on: DU-145 prostate
EKVX NSCLC = tested on: EKVX NSCLC
HCC-2998 colon = tested on: HCC-2998 colon
HCT-116 colon = tested on: HCT-116 colon
HCT-15 colon = tested on: HCT-15 colon
HL-60(TB) leukemia = tested on: HL-60(TB) leukemia
HOP-62 NSCLC = tested on: HOP-62 NSCLC
HS 578T breast = tested on: HS 578T breast
HT29 colon = tested on: HT29 colon
IGROV1 ovarian = tested on: IGROV1 ovarian
K-562 leukemia = tested on: K-562 leukemia
KM12 colon = tested on: KM12 colon
LOX IMVI melanoma = tested on: LOX IMVI melanoma
M14 melanoma = tested on: M14 melanoma
MALME-3M melanoma = tested on: MALME-3M melanoma
MCF7 breast = tested on: MCF7 breast
MDA-MB-231 breast = tested on: MDA-MB-231 breast
MDA-MB-435 = tested on: MDA-MB-435
MDA-N = tested on: MDA-N
MOLT-4 leukemia = tested on: MOLT-4 leukemia
NCI-H226 lung = tested on: NCI-H226 lung
NCI-H23 lung = tested on: NCI-H23 lung
NCI-H460 lung = tested on: NCI-H460 lung
NCI-H522 lung = tested on: NCI-H522 lung
NCI/ADR-RES ovarian = tested on: NCI/ADR-RES ovarian
OVCAR-3 ovarian = tested on: OVCAR-3 ovarian
OVCAR-4 ovarian = tested on: OVCAR-4 ovarian
OVCAR-5 ovarian = tested on: OVCAR-5 ovarian
OVCAR-8 ovarian = tested on: OVCAR-8 ovarian
PC-3 prostate = tested on: PC-3 prostate
RPMI-8226 leukemia = tested on: RPMI-8226 leukemia
RXF 393 renal = tested on: RXF 393 renal
SF-268 CNS = tested on: SF-268 CNS
SF-295 CNS = tested on: SF-295 CNS
SF-539 CNS = tested on: SF-539 CNS
SK-MEL-2 melanoma = tested on: SK-MEL-2 melanoma
SK-MEL-28 melanoma = tested on: SK-MEL-28 melanoma
SK-MEL-5 melanoma = tested on: SK-MEL-5 melanoma
SK-OV-3 ovarian = tested on: SK-OV-3 ovarian
SN12C renal = tested on: SN12C renal
SNB-19 CNS = tested on: SNB-19 CNS
SR leukemia = tested on: SR leukemia
SW-620 colon = tested on: SW-620 colon
TK-10 renal = tested on: TK-10 renal
U251 CNS = tested on: U251 CNS
UACC-257 melanoma = tested on: UACC-257 melanoma
UACC-62 melanoma = tested on: UACC-62 melanoma
UO-31 renal = tested on: UO-31 renal

Measured: TGI

CCCCC/C(=N\c1nc[nH]c1C(N)=O)OCC
> 100 µM: all assays above
